Assay [1] has as its system PC-3M-Luc-C6 prostate cells. As to the kind of experiment: In vitro PC-3M-Luc-C6 prostate cell proliferation assay in lipid reduced medium. The assay is classed as cell-based. Conditions: 96 h, read-out: pIC50 PC-3M-Luc-C6 prostate cell (converted). On the procedure:
PC-3M-Luc-C6 prostate cells were obtained from Xenogen Corporation. Cells were maintained in MEM supplemented with 10% Fetal Calf Serum (FCS, Hyclone), 2 mM glutamine, 1 mM sodium pyruvate, 1% BME vitamins (available from for example, Sigma Aldrich), 0.1 mM non Essential Amino Acid and 50 μg/ml Gentamicin. The cells were passaged twice a week.
The next day 10 μl test compound/DMSO diluted in medium was added (3E-5M, 1E-5M, 3E-6M, 1E-6M, 3E-7M, 1E-7M, 3E-8M, 1E-8M final concentration). Compounds were tested in duplicate. After 96 h incubation at 37° C., 5% CO2 25 μl ATP-glow mix was added. The plate was incubated for 30 min at 37° C. and luminescence was measured with the Envision.
Analysis: Determination of pIC50 Values
pIC50 values were calculated as follows.
where mLC and mHC are the means of the low control wells and high control wells on the plate, after manual exclusion of outliers. The relation between the % Controlmin values and concentration was fitted to a 4-parameter logistic curve using a non-linear least squares regression method to determine the pIC50 value. Outlying data points were excluded manually to get a correct fit. The pIC50 corresponds to −log 10(IC50), if the IC50 is expressed in molar units (http://www.ncbi.nlm.nih.gov/books/NBK91994). The IC50 parameter was always determined by non-linear regression, but one or more of the other parameters may have been held fixed on a relevant input value, such as 0 for the bottom values.

In assay [2] the test system is A2780 ovarian cells. As to the kind of experiment: A2780 ovarian cell proliferation assay in lipid reduced medium, without palmitate (MTT). The assay is classed as cell-based. Conditions: Homo sapiens, A2780, 96 h; read-out: pIC50 A2780 Ovarian Cell, Without Palmitate (converted).
The subject of assay [3] is A2780 ovarian cells. As to the kind of experiment: A2780 ovarian cell proliferation assay in lipid reduced medium, with palmitate (MTT). In kind it is cell-based. The settings on record: Homo sapiens, A2780, 96 h; read-out: pIC50 A2780 Ovarian Cell, With Palmitate (converted). An outline of the steps:
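Seeded cells were switched next day to lipid-reduced serum, exposed to compound and 25 μM palmitate complexed with fatty-acid-free BSA, and incubated 96 h. Proliferation was then determined by MTT absorbance at 544 nm, with a best-fit curve of signal against concentration.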

Assay [4] has as its target T1, hFASN enzyme (full length) (Homo sapiens, UniProt P49327).
T1 construct: 10 μL hFASN enzyme (full length, 300 ng, purified in house); made in house
Kind of assay: Fatty Acid Synthase (FASN) inhibition scintillation proximity assay. The settings on record: for inhibition at 10 µM: read-out: Human FASN % inhibition @ 10 μM, 10 μM test compound; for IC50: read-out: Human FASN pIC50 (converted). In kind it is biochemical. Put shortly: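 Purified full-length hFASN (300 ng) converts ^3H-acetyl-CoA plus malonyl-CoA to ^3H-palmitate in 100 mM KH2PO4 pH 7.5, 1 mM DTT; compounds tested at 0.01–30 μM. Product captured on streptavidin imaging beads and read by LEADseeker at 610 nm after ≥24 h; 4-parameter logistic fit versus controls.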

The subject of assay [5] is LNCaP-Vancouver prostate cells. Kind of assay: In vitro LNCaP Vancouver prostate cell proliferation assay in lipid reduced medium. The assay is classed as cell-based. The settings on record: read-out: pIC50 LNCaP_Vancouver prostate cell (converted).

T1 sequence (P49327 whole entry): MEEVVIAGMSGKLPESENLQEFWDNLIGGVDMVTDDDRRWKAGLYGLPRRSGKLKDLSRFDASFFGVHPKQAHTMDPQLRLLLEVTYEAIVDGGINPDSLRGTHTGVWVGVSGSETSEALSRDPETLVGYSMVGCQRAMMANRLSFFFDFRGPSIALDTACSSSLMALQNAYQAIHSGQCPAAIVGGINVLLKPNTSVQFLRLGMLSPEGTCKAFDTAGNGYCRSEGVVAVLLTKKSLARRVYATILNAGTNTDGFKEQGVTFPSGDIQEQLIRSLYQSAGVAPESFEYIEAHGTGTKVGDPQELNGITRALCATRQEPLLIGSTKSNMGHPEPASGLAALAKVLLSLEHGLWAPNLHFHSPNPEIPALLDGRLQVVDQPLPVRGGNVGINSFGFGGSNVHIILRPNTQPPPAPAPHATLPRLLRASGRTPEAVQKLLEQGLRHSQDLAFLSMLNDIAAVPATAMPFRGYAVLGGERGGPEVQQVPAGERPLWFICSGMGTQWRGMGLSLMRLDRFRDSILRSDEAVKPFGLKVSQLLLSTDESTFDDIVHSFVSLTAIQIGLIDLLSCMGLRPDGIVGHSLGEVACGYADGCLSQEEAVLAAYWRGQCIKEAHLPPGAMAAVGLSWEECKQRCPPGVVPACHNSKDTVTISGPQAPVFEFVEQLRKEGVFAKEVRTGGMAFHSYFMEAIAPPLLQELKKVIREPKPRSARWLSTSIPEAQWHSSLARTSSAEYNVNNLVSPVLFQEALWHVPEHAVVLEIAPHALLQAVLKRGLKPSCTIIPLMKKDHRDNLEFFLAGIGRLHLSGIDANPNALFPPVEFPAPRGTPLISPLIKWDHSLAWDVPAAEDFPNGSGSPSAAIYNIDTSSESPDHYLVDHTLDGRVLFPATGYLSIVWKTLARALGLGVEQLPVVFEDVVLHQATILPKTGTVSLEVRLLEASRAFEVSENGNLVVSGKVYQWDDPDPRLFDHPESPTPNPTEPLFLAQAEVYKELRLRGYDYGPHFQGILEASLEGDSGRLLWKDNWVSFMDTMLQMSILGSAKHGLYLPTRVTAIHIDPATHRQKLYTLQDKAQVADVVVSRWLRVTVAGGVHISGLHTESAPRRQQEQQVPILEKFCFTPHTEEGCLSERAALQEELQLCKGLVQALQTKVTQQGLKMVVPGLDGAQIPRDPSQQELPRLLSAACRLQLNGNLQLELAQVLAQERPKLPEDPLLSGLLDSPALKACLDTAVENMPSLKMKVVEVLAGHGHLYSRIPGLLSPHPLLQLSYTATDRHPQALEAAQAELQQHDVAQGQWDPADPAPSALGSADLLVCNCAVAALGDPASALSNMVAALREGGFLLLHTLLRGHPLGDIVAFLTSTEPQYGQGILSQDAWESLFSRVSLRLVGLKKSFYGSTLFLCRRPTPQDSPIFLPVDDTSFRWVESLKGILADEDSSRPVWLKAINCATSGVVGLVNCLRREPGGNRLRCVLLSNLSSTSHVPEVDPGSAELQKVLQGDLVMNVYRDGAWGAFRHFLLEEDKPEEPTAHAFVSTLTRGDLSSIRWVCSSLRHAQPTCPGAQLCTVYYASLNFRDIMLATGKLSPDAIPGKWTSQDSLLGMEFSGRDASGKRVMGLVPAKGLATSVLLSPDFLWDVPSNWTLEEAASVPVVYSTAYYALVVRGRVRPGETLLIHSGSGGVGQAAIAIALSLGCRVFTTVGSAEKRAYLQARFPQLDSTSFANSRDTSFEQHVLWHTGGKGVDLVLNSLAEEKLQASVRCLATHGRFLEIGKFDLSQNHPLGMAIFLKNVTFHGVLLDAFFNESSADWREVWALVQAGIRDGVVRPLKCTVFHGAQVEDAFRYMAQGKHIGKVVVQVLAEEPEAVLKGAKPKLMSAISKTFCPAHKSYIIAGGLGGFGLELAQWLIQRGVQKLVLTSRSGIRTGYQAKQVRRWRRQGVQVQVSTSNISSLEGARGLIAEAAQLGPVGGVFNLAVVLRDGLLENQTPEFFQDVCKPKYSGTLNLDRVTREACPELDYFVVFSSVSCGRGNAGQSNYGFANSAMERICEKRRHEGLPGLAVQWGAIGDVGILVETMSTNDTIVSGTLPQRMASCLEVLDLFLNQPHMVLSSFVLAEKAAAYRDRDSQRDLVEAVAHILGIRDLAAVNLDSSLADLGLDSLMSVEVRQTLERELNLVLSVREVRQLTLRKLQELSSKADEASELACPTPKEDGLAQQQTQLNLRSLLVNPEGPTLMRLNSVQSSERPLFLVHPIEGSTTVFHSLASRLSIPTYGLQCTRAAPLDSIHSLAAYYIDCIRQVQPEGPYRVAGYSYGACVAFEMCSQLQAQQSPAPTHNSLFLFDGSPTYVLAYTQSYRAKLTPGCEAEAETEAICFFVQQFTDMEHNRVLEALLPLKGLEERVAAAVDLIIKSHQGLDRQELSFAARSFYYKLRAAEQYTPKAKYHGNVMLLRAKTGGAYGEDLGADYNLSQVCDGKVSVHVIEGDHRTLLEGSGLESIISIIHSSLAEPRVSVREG

Broadly, the inhibition is the relative decrease from the control value, in per cent. For the molecule `Cn1ncc2cc(-c3ccc(C4=NC5(CC5)C(=O)N4C[C@@H]4CCN(C(=O)C5CCO5)C4)cc3)ccc21` (stereo partly drawn) [compound 204, 5-(4-(1-methyl-1H-indazol-5-yl)phenyl)-6-(((3R)-1-(oxetane-2-carbonyl)pyrrolidin-3-yl)methyl)-4,6-diazaspiro[2.4]hept-4-en-7-one], the IC50 was 51.3 nM in assay [1], roughly 40.7 nM in the assay with A2780 ovarian cells [2], greater than 10000 nM with A2780 ovarian cells [3] and 407 nM in assay [5]. Also, the inhibition at 10 µM in assay [4] stood at 103%.
Consider `Cc1cc(-c2ccc3c(cnn3C)c2)ccc1C1=NC2(CC2)C(=O)N1CC1CN(C(=O)C2(C)CC2)C1` [compound 207, 5-(2-methyl-4-(1-methyl-1H-indazol-5-yl)phenyl)-6-((1-(1-methylcyclopropanecarbonyl)azetidin-3-yl)methyl)-4,6-diazaspiro[2.4]hept-4-en-7-one], for which the IC50 in assay [1] was roughly 67.6 nM; in the assay with A2780 ovarian cells [2] it was 60.3 nM; in the assay with A2780 ovarian cells [3], greater than 10000 nM; in assay [5], 513 nM. For the same molecule, the inhibition at 10 µM in assay [4] came to 101%.
As for `Cc1cc(-c2ccc3cc(F)ccc3c2)ccc1C1=NC2(CC2)C(=O)N1CC1CN(C(=O)C2CCO2)C1` (stereo not shown) [compound 223, 5-(4-(6-fluoronaphthalen-2-yl)-2-methylphenyl)-6-((1-(oxetan-2-carbonyl)azetidin-3-yl)methyl)-4,6-diazaspiro[2.4]hept-4-en-7-one], the IC50 is 60.3 nM in assay [1]; roughly 20 nM in the assay on A2780 ovarian cells [2]; 3310 nM in the assay on A2780 ovarian cells [3]; 53.7 nM in assay [4]; 240 nM in assay [5]. Moreover, the inhibition at 10 µM in assay [4] was 104%.
For the molecule `O=C(C1CC1)N1CC(CN2C(=O)C3(CC3)N=C2c2ccc(-c3ccc4cc(F)ccc4n3)cc2F)C1` [compound 228, 6-((1-(cyclopropanecarbonyl)azetidin-3-yl)methyl)-5-(2-fluoro-4-(6-fluoroquinolin-2-yl)phenyl)-4,6-diazaspiro[2.4]hept-4-en-7-one], the IC50 in assay [1] was 97.7 nM; with A2780 ovarian cells [2], 18.2 nM; with A2780 ovarian cells [3], greater than 10000 nM; in assay [5], 759 nM. In addition, the inhibition at 10 µM in assay [4] worked out at 103%.
On to `Cc1cc(C2=NC3(CC3)C(=O)N2C[C@@H]2CCN(C(=O)C3CC3)C2)ccc1-c1ccc2cc[nH]c2c1` [compound 239, (R)-5-(4-(1H-indol-6-yl)-3-methylphenyl)-6-((1-(cyclopropanecarbonyl)pyrrolidin-3-yl)methyl)-4,6-diazaspiro[2.4]hept-4-en-7-one], for which the IC50 in assay [1] was 135 nM; in the assay with A2780 ovarian cells [2], 60.3 nM; in the assay with A2780 ovarian cells [3] it was greater than 10000 nM; in assay [5], 813 nM. In assay [4], the inhibition at 10 µM amounted to 96%.
As to `Cc1cc2cc(-c3ccc(C4=NC5(CC5)C(=O)N4C[C@@H]4CCN(C(=O)C5CC5)C4)cc3)ccc2o1` [compound 294, (R)-6-((1-(cyclopropanecarbonyl)pyrrolidin-3-yl)methyl)-5-(4-(2-methylbenzofuran-5-yl)phenyl)-4,6-diazaspiro[2.4]hept-4-en-7-one], the IC50 in assay [1] was roughly 871 nM; in the assay with A2780 ovarian cells [2], roughly 1860 nM; in the assay on A2780 ovarian cells [3] it was greater than 10000 nM; in assay [5], 2040 nM. Besides, in assay [4], the inhibition at 10 µM was found to be 100%.
As for `O=C(C1CC1)N1CC[C@@H](CN2C(=O)C3(CC3)N=C2c2ccc(-c3ccc4ncccc4c3)cc2)C1` [compound 455, 6-{[(3R)-1-(Cyclopropylcarbonyl)pyrrolidin-3-yl]methyl}-5-(4-quinolin-6-ylphenyl)-4,6-diazaspiro[2.4]hept-4-en-7-one], the IC50 was roughly 692 nM in assay [1], roughly 891 nM with A2780 ovarian cells [2], greater than 10000 nM with A2780 ovarian cells [3] and 2140 nM in assay [5].
Turning to `Nc1nccc2cc(-c3ccc(C4=NC5(CC5)C(=O)N4C[C@@H]4CCN(C(=O)C5CC5)C4)cc3)ccc12` [compound 469, 5-[4-(1-Aminoisoquinolin-6-yl)phenyl]-6-{[(3R)-1-(cyclopropylcarbonyl)pyrrolidin-3-yl]methyl}-4,6-diazaspiro[2.4]hept-4-en-7-one], the IC50 was 58.9 nM in assay [1], 74.1 nM with A2780 ovarian cells [2], greater than 10000 nM in the assay with A2780 ovarian cells [3] and 288 nM in assay [5]. Moreover, the inhibition at 10 µM in assay [4] was determined as 97%.
`O=C(C1CC1)N1CC[C@@H](CN2C(=O)C3(CC3)N=C2c2ccc(-c3cnc4ccccc4c3)cc2)C1` [compound 474, 6-{[(3R)-1-(Cyclopropylcarbonyl)pyrrolidin-3-yl]methyl}-5-(4-quinolin-3-ylphenyl)-4,6-diazaspiro[2.4]hept-4-en-7-one]: the IC50 was 708 nM in assay [1], 200 nM in the assay on A2780 ovarian cells [2], greater than 10000 nM in the assay on A2780 ovarian cells [3] and 1000 nM in assay [5].
For the molecule `Cc1cc(-c2ccc3c(cnn3C)c2)ccc1C1=NC2(CC2)C(=O)N1CC1CN(C(=O)C2CCC2)C1` [compound 489], the IC50 is roughly 251 nM in assay [1], 148 nM with A2780 ovarian cells [2], greater than 10000 nM in the assay on A2780 ovarian cells [3] and 708 nM in assay [5]. In addition, the inhibition at 10 µM in assay [4] stood at 97%.
For `Cc1c(-c2ccc(C3=NC4(CC4)C(=O)N3CC3CN(C(=O)C4CC4)C3)cc2)ccc2c1cnn2C` [compound 491, 6-{[1-(Cyclopropylcarbonyl)azetidin-3-yl]methyl}-5-[4-(1,4-dimethyl-1H-indazol-5-yl)phenyl]-4,6-diazaspiro[2.4]hept-4-en-7-one], the IC50 in assay [1] was roughly 178 nM; in the assay with A2780 ovarian cells [2], 72.4 nM; in the assay on A2780 ovarian cells [3], greater than 10000 nM; in assay [5], 1000 nM. The inhibition at 10 µM in assay [4] came out at 100%.
Take `O=C(C1CC1)N1CC[C@@H](CN2C(=O)C3(CC3)N=C2c2ccc(-c3n[nH]c4ccccc34)cc2)C1` [compound 528, 6-{[(3R)-1-(Cyclopropylcarbonyl)pyrrolidin-3-yl]methyl}-5-[4-(1H-indazol-3-yl)phenyl]-4,6-diazaspiro[2.4]hept-4-en-7-one]: the IC50 is 501 nM in assay [1], roughly 398 nM in the assay with A2780 ovarian cells [2], greater than 10000 nM in the assay on A2780 ovarian cells [3] and 2340 nM in assay [5].
For `Cc1cc(-c2cccc3c2cnn3C)ccc1C1=NC2(CC2)C(=O)N1CC1CN(C(=O)C2(C)CC2)C1` [compound 599, 6-({1-[(1-Methylcyclopropyl)carbonyl]azetidin-3-yl}methyl)-5-[2-methyl-4-(1-methyl-1H-indazol-4-yl)phenyl]-4,6-diazaspiro[2.4]hept-4-en-7-one], the IC50 in assay [1] was 105 nM; with A2780 ovarian cells [2], 145 nM; in the assay on A2780 ovarian cells [3] it was 5500 nM; in assay [5] it was 912 nM. For the same molecule, the inhibition at 10 µM in assay [4] worked out at 102%.
Taken in the same sequence, the figures for `Cc1cc(-c2ccc3c(c2)ncn3C)ccc1C1=NC2(CC2)C(=O)N1CC1CN(C(=O)C2(O)CC2)C1` [compound 628, 6-({1-[(1-Hydroxycyclopropyl)carbonyl]azetidin-3-yl}methyl)-5-[2-methyl-4-(1-methyl-1H-benzimidazol-5-yl)phenyl]-4,6-diazaspiro[2.4]hept-4-en-7-one] were 162 nM, 66.1 nM, greater than 10000 nM, 724 nM and 100%.
For the molecule `O=C(C1CC1)N1CC[C@@H](CN2C(=O)C3(CC3)N=C2c2ccc(-c3cccc(SC4CC4)c3)cc2F)C1` [compound 641, 6-{[(3R)-1-(Cyclopropylcarbonyl)pyrrolidin-3-yl]methyl}-5-[3′-(cyclopropylsulfanyl)-3-fluorobiphenyl-4-yl]-4,6-diazaspiro[2.4]hept-4-en-7-one], the IC50 in assay [1] was roughly 562 nM; in the assay with A2780 ovarian cells [2], roughly 2240 nM; with A2780 ovarian cells [3], greater than 10000 nM; in assay [5], 4570 nM. For the same molecule, in assay [4], the inhibition at 10 µM is 102%.
As for `O=C(C1CC1)N1CC(CN2C(=O)C3(CC3)N=C2c2ccc(-c3nc4cc(Cl)ccc4s3)cc2F)C1` [compound 643, 5-[4-(5-Chloro-1,3-benzothiazol-2-yl)-2-fluorophenyl]-6-{[1-(cyclopropylcarbonyl)azetidin-3-yl]methyl}-4,6-diazaspiro[2.4]hept-4-en-7-one], the IC50 is 977 nM in assay [1]; roughly 676 nM in the assay on A2780 ovarian cells [2]; roughly 10000 nM with A2780 ovarian cells [3]; 380 nM in assay [4]; 3020 nM in assay [5]. In assay [4], the inhibition at 10 µM came out at 96%.
